Measured values from PMC8175350, “Drug repurposing screens identify chemical entities for the development of COVID-19 interventions” (Nature Communications, 2021).
Structures can show the parent of a compound that is named as a salt. Where two headings read alike, the source gives them in different places.

Assays:
[1] = tested on: HeLa-ACE2 cells; test: cells; conditions: Homo sapiens; for Emax: HeLa-ACE2, 24 h, read-out: HeLa-ACE2 cell count Sinf Average
[2] = tested on: SARS-CoV-2; test: microbe, parasite or virus in culture; format: cell-based; conditions: for EC50: Severe acute respiratory syndrome coronavirus 2, HeLa-ACE2, detail block, read-out: HeLa-ACE2 TOA CoV-2 EC50 GeoMean; for Emax: Severe acute respiratory syndrome coronavirus 2, HeLa-ACE2, 10 h, curve plateau at infinite concentration, read-out: HeLa-ACE2 TOA CoV-2 Sinf Average
[3] = tested on: SARS-CoV-2; test: microbe, parasite or virus in culture; format: cell-based; conditions: for Emax: Severe acute respiratory syndrome coronavirus 2, Calu-3, 48 h, read-out: Calu-3 CoV-2 Sinf Average
[4] = tested on: HeLa-ACE2 cells; test: Uninfected HeLa-ACE2 24 h live/dead cytotoxicity counter screen; format: cell-based, human; conditions: curve plateau at infinite concentration
[5] = as above; format: cell-based, human; conditions: human, uninfected HeLa-ACE2 cells
[6] = tested on: Calu-3 cells; test: cells; conditions: Homo sapiens; for Emax: Calu-3, 48 h, read-out: Calu-3 cell count Sinf Average
[7] = tested on: HeLa-ACE2 cells; test: cells; format: cell-based, human; conditions: Homo sapiens, HeLa-ACE2; read-out: HeLa-ACE2 TOA cell count EC50 GeoMean
[8] = tested on: SARS-CoV-2; test: microbe, parasite or virus in culture; format: cell-based; conditions: for Emax: Severe acute respiratory syndrome coronavirus 2, HeLa-ACE2, 24 h, curve plateau at infinite concentration, read-out: HeLa-ACE2 CoV-2 Sinf Average
[9] = tested on: HEK293T; test: HEK293T 72 h CellTiter-Glo cytotoxicity; conditions: 72 h
[10] = HEK293T 72 h CellTiter-Glo cytotoxicity; conditions: human, HEK293T cells
[11] = tested on: HepG2; test: HepG2 72 h CellTiter-Glo cytotoxicity; conditions: 72 h
[12] = HepG2 72 h CellTiter-Glo cytotoxicity; conditions: human, HepG2 cells
[13] = in vitro; conditions: human
[14] = human, cited from earlier work
[15] = tested on: Calu-3 cells; test: Uninfected Calu-3 48 h Cell-Titer Glo cytotoxicity counter screen; conditions: curve plateau at infinite concentration
[16] = as above; conditions: human, uninfected Calu-3 cells, Calu-3 uninfected cytotoxicity CC50 GeoMean, detail block
[17] = tested on: SARS-CoV-2; format: cell-based; conditions: combination with remdesivir
[18] = tested on: HEK293T; conditions: human, 72 h
[19] = tested on: HepG2; conditions: human, 72 h
[20] = tested on: Calu-3 cells
[21] = HeLa-ACE2, read-out: HeLa-ACE2 cell count EC50 GeoMean, detail block
[22] = Severe acute respiratory syndrome coronavirus 2, Calu-3, detail block, read-out: Calu-3 CoV-2 EC50 GeoMean
[23] = detail block, read-out: HeLa-ACE2 uninfected cytotoxicity CC50 GeoMean
[24] = Calu-3, read-out: Calu-3 cell count EC50 GeoMean, detail block
[25] = Severe acute respiratory syndrome coronavirus 2, HeLa-ACE2, detail block, read-out: HeLa-ACE2 CoV-2 EC50 GeoMean
[26] = selectivity index, uninfected HeLa-ACE2 CC50 / SARS-CoV-2 EC50
[27] = TOA EC50 / HeLa-ACE2 SARS-CoV-2 EC50
[28] = curve plateau at infinite concentration
[29] = selectivity index, uninfected Calu-3 CC50 / Calu-3 SARS-CoV-2 EC50

SMILES | Emax [1] | EC50 [1, 21] | TOA:HeLa-ACE2 EC50 Ratio [2] | EC50 [2] | EC50 [3, 22] | HeLa-ACE2 uninfected cytotoxicity Sinf Average [4] | CC50 at 24 h [5, 23] | EC50 [6, 24] | EC50 [7] | Emax [8] | EC50 [8, 25] | HeLa-ACE2 SI [8, 26] | HEK293T 72-hour cytotoxicty Sinf Average [9] | CC50 at 72 h [10] | HepG2 72-hour cytotoxicity Sinf Average [11] | CC50 at 72 h [12] | Emax [2] | Calu-3 uninfected cytotoxicity Sinf Average [15] | CC50 at 48 h [16] | Emax [3, 28] | also measured
CCN(CC)Cc1cc(Nc2ccnc3cc(Cl)ccc23)ccc1O [Amodiaquine] | -26% | > 0.865 µM | 8.060 | > 9.59 µM | > 9.85 µM | -89% | > 39.8 µM | > 9.85 µM | > 9.59 µM | 102% | 1.19 µM | > 33.48 | -87% | 10 µM | -80% | 3.76 µM |  |  |  |  | 
C=Cc1cc(C(=O)Nc2ccc(C(=N)N)cc2)c(-c2ccc(C(=O)NCC3CC3)nc2C(=O)O)cc1OC [Avoralstat] |  |  |  |  |  |  |  |  |  |  |  |  |  |  |  |  |  |  |  |  | EC50 ([1]; HeLa-ACE2, read-out: HeLa-ACE2 cell count EC50 GeoMean, unrounded geometric mean): > 9.59 µM; Emax ([3]; curve-fit effect at infinite concentration, average): 88%; EC50 ([3]; Severe acute respiratory syndrome coronavirus 2, Calu-3, reconfirmed hits, read-out: Calu-3 SARS-CoV-2 EC50): 0.387 µM; EC50 ([3]; Severe acute respiratory syndrome coronavirus 2, Calu-3, unrounded geometric mean, read-out: Calu-3 CoV-2 EC50 GeoMean): 0.387 µM; CC50 ([13]; Calu-3 Uninf. cells CC50 (µM), reconfirmed hits): > 30 µM; CC50 ([13]; Calu-3 uninfected cytotoxicity CC50 GeoMean, unrounded geometric mean): > 29.9 µM; CC50 at 24 h ([5]; reconfirmed hits, read-out: HeLa-ACE2 Uninf. cells CC50): > 40 µM; CC50 at 24 h ([5]; unrounded geometric mean, read-out: HeLa-ACE2 uninfected cytotoxicity CC50 GeoMean): > 39.8 µM; Emax [6]: 91%; EC50 ([6]; Calu-3, read-out: Calu-3 cell count EC50 GeoMean, unrounded geometric mean): 0.57 µM; Approx. t1/2 ([14]; ref [33]-[49]): 14 h; Cmax ([14]; read-out: Approx. Cmax, oral, ref [36],[37],[42],[43] as in column Refs.): 364 nM; EC50 ([8]; Severe acute respiratory syndrome coronavirus 2, HeLa-ACE2, reconfirmed hits, read-out: HeLa-ACE2 SARS-CoV-2 EC50): > 9.6 µM; EC50 ([8]; Severe acute respiratory syndrome coronavirus 2, HeLa-ACE2, unrounded geometric mean, read-out: HeLa-ACE2 CoV-2 EC50 GeoMean): > 9.59 µM
CCCCCCOC(=O)NC(=N)c1ccc(NCc2nc3cc(C(=O)N(CCC(=O)OCC)c4ccccn4)ccc3n2C)cc1 [Dabigatran etexilate mesilate] |  | > 9.59 µM |  | > 9.51 µM | > 9.98 µM | -97% | > 26.5 µM | > 9.98 µM | > 9.59 µM | 100% | 4.08 µM |  | -101% | 8.53 µM | -96% | 13.1 µM | 100% | -100% | > 29.9 µM |  | TOA:HeLa-ACE2 EC50 Ratio [2, 27]: 2.329; Emax [6]: 100%; HeLa-ACE2 SI [8]: > 6.50
CN1CCN(c2ccc(C(=O)NCc3cnc(C#N)nc3NCC(C)(C)C)cc2)CC1 [Dutacatib] |  | > 9.59 µM |  | > 9.36 µM | > 9.98 µM | -100% | > 36.1 µM | > 9.98 µM | > 9.59 µM | 101% | 2.69 µM | > 13.43 |  |  |  |  | 100% |  |  | 96% | HeLa-ACE2 synergy score with remdesivi [17]: 2.955 δ; HEK293T 72-hour cytotoxicty Sinf Average [18]: -100%; TOA:HeLa-ACE2 EC50 Ratio [2, 27]: 3.480; CC50 at 48 h ([13]; Calu-3 uninfected cytotoxicity CC50 GeoMean): > 29.9 µM; Emax [6]: 100%; HepG2 72-hour cytotoxicity Sinf Average [19]: -100%; uninfected Calu-3 CC50 [20]: > 29.867 ×÷ 1.001 (n=3) μM; Calu-3 uninfected cytotoxicity Sinf Average ([20]; human, 48 h): -100%
CCc1ccc2c(c1)N(CC(C)CN(C)C)c1ccccc1S2 (centres unmarked) [Ethylisobutrazine hydrochloride] | 100% | > 9.59 µM | 1.889 | 3.77 µM | > 9.98 µM | -100% | 20.9 µM | > 9.98 µM | > 9.59 µM | 100% | 2 µM | 10.48 | -104% | 10.3 µM | -100% | 14.1 µM | 100% | -100% | 15.7 µM | 100% | Calu-3 SI [3, 29]: 1.57
COc1ccc2cc1Oc1ccc(cc1)C[C@H]1c3cc(c(OC)cc3CCN1C)Oc1c(OC)c(OC)cc3c1[C@H](C2)N(C)CC3 [Hanfangchin A] | 100% | > 9.21 µM | 7.993 | > 9.41 µM | > 9.98 µM | -99% | > 18.9 µM | > 9.98 µM | > 9.59 µM | 100% |  |  | -101% | 3.6 µM | -105% | 2.28 µM | 100% | -100% | 15.2 µM |  | Calu-3 SI [3]: 1.53; Emax [3]: 87%; HeLa-ACE2 SI [8]: > 16.08; EC50 ([8]; Severe acute respiratory syndrome coronavirus 2, HeLa-ACE2, read-out: HeLa-ACE2 CoV-2 EC50 GeoMean, detail block): 1.18 µM
COC(=O)[C@H]1[C@H]2C[C@@H]3c4[nH]c5cc(OC)ccc5c4CCN3C[C@H]2C[C@@H](OC(=O)c2cc(OC)c(OC)c(OC)c2)[C@@H]1OC [Reserpine] |  | > 9.6 µM | 0.542 | 2.99 µM | > 9.98 µM | -100% | > 36.4 µM | > 9.98 µM | > 9.61 µM | 100% | > 5.51 µM | > 6.60 | -100% | 11.7 µM | -100% | 33 µM | 100% | -100% | > 28.5 µM | 100% | Calu-3 SI [3, 29]: 2.85; Emax [6]: 100%
CC(CN(C)C)CN1c2ccccc2CCc2ccccc21 (centres unmarked) [Trimipramine maleate] |  | > 9.59 µM | 2.576 | 5.42 µM | > 9.98 µM | -100% | 21.3 µM | > 9.98 µM | > 9.59 µM | 99% | 2.11 µM | 10.11 | -102% | 12.8 µM | -100% | 18.8 µM | 100% | -100% | > 29 µM | 100% | Calu-3 SI [3, 29]: 2.90
OCCN1CCN(CC/C=C2/c3ccccc3Sc3ccc(Cl)cc32)CC1 [Zuclopenthixol] | 100% | > 9.59 µM | 2.929 | 6.1 µM | > 9.05 µM | -100% | > 16.8 µM | > 9.98 µM | > 9.59 µM | 100% | 2.08 µM | > 8.08 | -100% | 18.6 µM | -100% | 12.5 µM | 99% | -100% | 9.6 µM | 100% | Calu-3 SI [3, 29]: 1.06
